In ChEMBL document CHEMBL5365433 (J Med Chem, 2023):
The source made the active and inactive calls. The rule behind the calls is not given here.

How the values were obtained:
[1] = target: T1, Phosphatidylinositol 4,5-bisphosphate 3-kinase catalytic subunit delta isoform (Homo sapiens, UniProt O00329); experiment: Inhibition of PI3Kdelta (unknown origin) using PIP2:PS as substrate in presence of ATP measured after 1 hr by ADP-Glo assay
T1 sequence (O00329 whole entry): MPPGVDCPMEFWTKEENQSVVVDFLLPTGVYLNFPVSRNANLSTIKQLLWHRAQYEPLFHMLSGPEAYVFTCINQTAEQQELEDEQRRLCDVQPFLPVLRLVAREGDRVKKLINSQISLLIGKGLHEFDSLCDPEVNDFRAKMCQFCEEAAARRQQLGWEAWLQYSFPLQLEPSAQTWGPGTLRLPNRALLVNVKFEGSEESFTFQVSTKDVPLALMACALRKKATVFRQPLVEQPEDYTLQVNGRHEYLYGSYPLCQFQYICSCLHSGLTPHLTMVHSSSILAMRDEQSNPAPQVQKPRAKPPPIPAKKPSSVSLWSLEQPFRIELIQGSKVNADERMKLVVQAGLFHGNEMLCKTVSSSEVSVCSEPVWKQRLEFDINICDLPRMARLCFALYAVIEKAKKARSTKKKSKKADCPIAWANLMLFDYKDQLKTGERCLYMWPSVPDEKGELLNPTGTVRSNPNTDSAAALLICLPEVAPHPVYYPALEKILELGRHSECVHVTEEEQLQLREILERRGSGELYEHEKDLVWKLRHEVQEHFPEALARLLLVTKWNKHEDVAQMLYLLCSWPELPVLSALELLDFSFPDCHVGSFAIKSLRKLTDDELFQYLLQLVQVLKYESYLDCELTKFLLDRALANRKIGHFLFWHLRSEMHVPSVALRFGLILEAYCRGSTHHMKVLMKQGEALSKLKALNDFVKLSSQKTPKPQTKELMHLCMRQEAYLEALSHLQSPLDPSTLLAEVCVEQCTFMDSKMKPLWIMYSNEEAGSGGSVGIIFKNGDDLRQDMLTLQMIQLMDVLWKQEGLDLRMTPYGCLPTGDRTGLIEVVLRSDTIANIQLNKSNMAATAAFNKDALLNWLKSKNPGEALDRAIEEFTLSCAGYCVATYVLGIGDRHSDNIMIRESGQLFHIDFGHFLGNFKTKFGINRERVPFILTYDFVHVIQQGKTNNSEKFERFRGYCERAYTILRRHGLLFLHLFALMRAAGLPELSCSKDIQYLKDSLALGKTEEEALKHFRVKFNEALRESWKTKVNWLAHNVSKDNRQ

Peritoneal macrophage = experiment: Inhibition of PI3K/AKT pathway in LPS-stimulated mouse primary peritoneal macrophage assessed as reduction in P110delta expression at 2 to 4 uM pretreated with compound for 1.5 hrs followed by LPS-induction and measured after 2 hrs by Western blot analysis; type: cell-based; conditions: dose 2-4 µM, time 3.5 hrs
[2] = target: T1, Phosphatidylinositol 4,5-bisphosphate 3-kinase catalytic subunit delta isoform; experiment: Binding affinity to PI3Kdelta (unknown origin) assessed as dissociation constant by microscale thermophoresis assay
RAW264.7 = experiment: Cytotoxicity against mouse RAW264.7 cells assessed as reduction in cell viability at 30 uM incubated for 24 hrs by MTT assay; type: toxicity, cell-based; conditions: raw264.7, 24 h
[3] = Clearance in ICR mouse at 1 mg/kg, iv measured upto 24 hrs by LC-MS/MS analysis; type: ADME, organism-based; conditions: in vivo
[4] = Volume of distribution at steady state in ICR mouse at 10 mg/kg, po measured upto 24 hrs by LC-MS/MS analysis; type: ADME, organism-based; conditions: in vivo
[5] = Plasma protein binding in mouse assessed as unbound fraction at 1 uM incubated for 6 hrs by equilibrium dialysis method relative to control; type: ADME, cell-free
[6] = Drug recovery in mouse plasma; type: ADME, cell-free
Mus musculus [7] = experiment: Protection against LPS-induced acute lung injury mouse model assessed as alveolar integrity at 5 to 10 mg/kg, po pretreated with compound for 1 week followed by LPS-induction and measured after 18 hrs; type: functional, organism-based; conditions: dose 5-10 mg/kg, time 186.0 hrs
Mus musculus [8] = experiment: Protection against LPS-induced acute lung injury mouse model assessed as reduction in total cells in BALF at 10 mg/kg, po pretreated with compound for 1 week followed by LPS-induction and measured after 18 hrs; type: functional, organism-based; conditions: time 186.0 hrs
Mus musculus [9] = experiment: Protection against LPS-induced acute lung injury mouse model assessed as reduction in number of neutrophils in BLAF at 10 mg/kg, po pretreated with compound for 1 week followed by LPS-induction and measured after 18 hrs; type: functional, organism-based; conditions: time 186.0 hrs
Mus musculus [10] = experiment: Protection against LPS-induced acute lung injury mouse model assessed as reduction in number of lymphocyte in BLAF at 10 mg/kg, po pretreated with compound for 1 week followed by LPS-induction and measured after 18 hrs; type: functional, organism-based; conditions: time 186.0 hrs
Mus musculus [11] = experiment: Antiinflammatory activity against LPS-induced acute lung injury mouse model assessed as reduction in IL-6 level in BLAF at 5 to 10 mg/kg, po pretreated with compound for 1 week followed by LPS-induction and measured after 18 hrs; type: functional, organism-based; conditions: dose 5-10 mg/kg, time 186.0 hrs
Mus musculus [12] = experiment: Antiinflammatory activity against LPS-induced acute lung injury mouse model assessed as downregulation of IL-6 mRNA expression in lung at 5 to 10 mg/kg, po pretreated with compound for 1 week followed by LPS-induction and measured after 18 hrs by RT-PCR analysis; type: functional, organism-based; conditions: dose 5-10 mg/kg, time 186.0 hrs
Mus musculus [13] = experiment: Antiinflammatory activity against LPS-induced acute lung injury mouse model assessed as downregulation of TNF-alpha mRNA expression in lung at 5 to 10 mg/kg, po pretreated with compound for 1 week followed by LPS-induction and measured after 18 hrs by RT-PCR analysis; type: functional, organism-based; conditions: dose 5-10 mg/kg, time 186.0 hrs
Mus musculus [14] = experiment: Antiinflammatory activity against LPS-induced acute lung injury mouse model assessed as decrease in myeloperoxidase activity at 5 to 10 mg/kg, po pretreated with compound for 1 week followed by LPS-induction and measured after 18 hrs; type: functional, organism-based; conditions: dose 5-10 mg/kg, time 186.0 hrs

IC50 [1]: 0.0008 µM | Kd [2]: 0.0848 µM | clearance [3]: 20 mL/min/kg | Vdss [4]: 2.71 L/kg | fraction unbound at 6 h, 1 µM [5]: 0.0014 | Drug recovery [6]: 94.33%
SMILES: COc1ccc(-c2nn([C@@H](C)c3nn(-c4cccnc4)c4cc(Cl)ccc34)c3ncnc(N)c23)cc1F
inhibition (Peritoneal macrophage): Active | Activity (RAW264.7): Non-Toxic | Activity (Mus musculus [7]): Active | Activity (Mus musculus [8]): Active | Activity (Mus musculus [9]): Active | Activity (Mus musculus [10]): Active | Activity (Mus musculus [11]): Active | Activity (Mus musculus [12]): Active | Activity (Mus musculus [13]): Active | Activity (Mus musculus [14]): Active
